Assay results as given in patent US4020111A, “Propynyloxy alkyl arene insecticides” (priority 1975, dated 1977).

Key:
mice [1] = assay: synergism of acute toxicity of Dimetilan, GS 13005, Secobarbital and Methadone (intraperitoneal); format: in vivo, Swiss albino white male mice; conditions: for number of mice dead: 48 hours, of eight mice
Procedure, shortened: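 Male Swiss albino mice (5–6 weeks, 23–27 g), eight per dose; synergist in corn oil given i.p. 1 h before i.p. insecticide or drug (drugs in distilled water). Lethality recorded over at least 6 h; controls received corn oil plus agent alone.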

[2] = tested on: polyvalent resistant (CH strain) houseflies; assay: whole plant or invertebrate; format: in vivo, housefly (CH strain); conditions: CH strain
mice [3] = assay: extension of Noludar sleeping time by synergists; format: in vivo, Swiss albino white male mice; conditions: Noludar 110 mg/K, synergist 110 mg/K; for Relative Sleeping Time: treated/control
Procedure, shortened: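 Swiss albino male mice (~38 days, 25-30 g) given synergist at 74.0 or 110.0 mg/kg in corn oil 1 h before Secobarbital 37.0 mg/kg or Noludar 110.0 mg/kg in water. Sleeping time measured from drug dosing to righting-reflex recovery; relative sleeping time = treated ÷ drug-only control.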

[4] = Dimetilan 8 mg/kg + synergist 80 mg/kg ip
[5] = Dimetilan 8 mg/kg + synergist 240 mg/kg ip
[6] = Dimetilan 2 + synergist 4 μg/fly
[7] = GS 13005 1 + synergist 2 μg/fly
[8] = GS 13798 1 + synergist 2 μg/fly
[9] = Pyrethrum 2 + synergist 4 μg/fly
[10] = Diazinon 5 + synergist 10 μg/fly
[11] = GS 13005 71 mg/kg + synergist 213 mg/kg
[12] = Methadone 32 mg/kg + synergist 215 mg/kg
[13] = Secobarbital 90 mg/kg + synergist 215 mg/kg

SMILES | number of mice dead (mice [1]; [4]) | number of mice dead (mice [1]; [5]) | percent kill after 24 hours [2, 6] | percent kill after 24 hours [2, 7] | percent kill after 24 hours [2, 8] | percent kill after 24 hours [2, 9] | Mean Sleeping Time (mice [3]) | Relative Sleeping Time (mice [3]) | percent kill after 24 hours [2, 10] | mice lethality (number dead) (mice [1]; [11]) | mice lethality (number dead) (mice [1]; [12]) | mice lethality (number dead) (mice [1]; [13])
C#CCON=C(C)c1ccc(Cl)cc1 [I-D] | 1 | 6 | 100% | 100% | 100% | 67% | 58 min | 1.5 |  |  |  | 
C#CCON=C(C)c1ccc2ccccc2c1 [I-F] | 0 | 4 | 100% | 100% | 95% | 35% | 55 min | 1.4 |  |  |  | 
C#CCON=Cc1ccc(Cl)cc1Cl [I-G] |  | 0 |  | 100% |  | 47% | 48 min | 1.2 |  |  |  | 
C#CCOCc1ccc(Cl)c(Cl)c1 [II-C] |  | 0 | 100% | 75% | 92% | 50% | 50 min | 1.3 | 95% |  |  | 
C#CCOCc1ccc(Cl)c(Cl)c1Cl [II-D] |  | 0 | 100% | 95% | 100% | 30% | 46 min | 1.0 | 60% | 3 | 2 | 1
C#CCOCc1c(Cl)ccc(Cl)c1Cl [II-E] |  | 0 | 100% | 100% | 100% | 78% | 45 min | 1.1 | 65% |  |  | 
C#CCOCc1c(Cl)cccc1[N+](=O)[O-] [II-K] | 0 | 6 |  |  |  |  | 75 min | 2.4 |  | 3 | 2 | 1
